Data as given in US10028992B2, “Methods of treating muscular dystrophy” (BOARD OF REGENTS OF THE NEVADA SYSTEM OF HIGHER EDUCATION …, priority 2012, dated 2018).

System: α7 integrin promoter
Assay: muscle cell-based assay: α7βgal+/− myoblasts/myotubes, LacZ reporter, β-galactosidase cleavage of FDG
Parameters: species or system mouse; Results in α7+/− β-galactosidase assay: scale not given here
Conditions: for Results in a α7+/− β-galactosidase assay, Myotubes, 0.5 uM: compound at 0.5 uM; for Results in a α7+/− β-galactosidase assay, Myotubes, 1 uM: compound at 1 uM; for Results in a α7+/− β-galactosidase assay, Myotubes, 5 uM: compound at 5 uM; for Results in a α7+/− β-galactosidase assay, Myotubes, 10 uM: compound at 10 uM; for Results in a α7+/− β-galactosidase assay, Myotubes, 20 uM: compound at 20 uM; for Results in a α7+/− β-galactosidase assay, Myotubes, 40 uM: compound at 40 uM; for Results in α7+/− β-galactosidase assay: Myoblasts; for EC50: given as log AC50 (negative values), read-out: Fit LogAC50 (converted); for Fit Curve Class: key not given
Summary of the method: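 Primary α7βgal+/− mouse myoblasts (LacZ knocked into α7 integrin exon 1, promoter retained), differentiated; promoter activity read as β-galactosidase conversion of non-fluorescent FDG to fluorescein. Hits followed by dose-response, western analysis and myostatin counterscreen.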

[1] = curve fit, activity at zero concentration

Row | SMILES | Results in a α7+/− β-galactosidase assay, Myotubes, 0.5 uM | Results in a α7+/− β-galactosidase assay, Myotubes, 1 uM | Results in a α7+/− β-galactosidase assay, Myotubes, 5 uM | Results in a α7+/− β-galactosidase assay, Myotubes, 10 uM | Results in a α7+/− β-galactosidase assay, Myotubes, 20 uM | Results in a α7+/− β-galactosidase assay, Myotubes, 40 uM | further results
1 | Cc1ccc(Cn2nnc3c(O)nc(C4CCCN(C(=O)c5ccco5)C4)nc32)cc1 (centres unmarked) [drawing 475] | −0.1767 | −0.1614 | −0.2961 | −0.3051 | −0.225 | −0.2551 | 
2 | Cc1ccc(Cn2nnc3c(O)nc(C4CCCN(C(=O)c5ccco5)C4)nc32)cc1 (centres unmarked) [drawing 683] |  |  |  |  |  |  | Results in α7+/− β-galactosidase assay (0.5 uM): 0.09519; Results in α7+/− β-galactosidase assay (1 uM): 0.1784; Results in α7+/− β-galactosidase assay (5 uM): −0.02152; Results in α7+/− β-galactosidase assay (10 uM): −0.00668; Results in α7+/− β-galactosidase assay (20 uM): −0.00332; Results in α7+/− β-galactosidase assay (40 uM): 0.06402
3 | COC(=O)Cn1c(=O)c2c(nc3n2CC(C)CN3Cc2ccccc2)n(C)c1=O (centres unmarked) [drawing 415] | 0.05467 | 0.04855 | −0.1372 | −0.2301 | 0.01742 | −0.09631 | 
4 | CCN1C(=O)/C(=C(/C#N)c2nc3ccccc3[nH]2)c2ccccc21 [drawing 316] | −0.1345 | −0.06381 | 0.001992 | 0.06976 | −0.2893 | −0.2363 | 
5 | N#C/C(=C/c1ccc(N2CCOCC2)o1)C(=O)Nc1ccccc1 [drawing 437] | −0.01316 | 0.1058 | −0.1378 | −0.06524 | 0.007978 | −0.03236 | 
6 | COC(=O)C1SCC2C(=O)N(Cc3ccc(F)cc3)CC(=O)N21 (centres unmarked) [Compound 187] |  |  |  |  |  |  | EC50 (Mus musculus): 8.91 µM; Score (Table 12 compound data): 42; Fit Curve Class (curve class number): 2.1; Fit HillSlope (curve fit): 1.3437; Fit Zero Activity [%] [1]: −54.3669%
7 | COc1ccc(S(=O)(=O)Nc2ccc(S(=O)(=O)Nc3nccs3)cc2)cc1 [Compound 152] |  |  |  |  |  |  | EC50 (Mus musculus): 12.6 µM; Score (Table 12 compound data): 42; Fit Curve Class (curve class number): 2.2; Fit HillSlope (curve fit): 1.1341; Fit Zero Activity [%] [1]: −8.4801%
8 | CCc1c(C)sc(NC(=O)c2ccco2)c1C#N [drawing 527] |  |  |  |  |  |  | Results in α7+/− β-galactosidase assay (0.5 uM): 0.01962; Results in α7+/− β-galactosidase assay (1 uM): 0.03303; Results in α7+/− β-galactosidase assay (5 uM): −0.06162; Results in α7+/− β-galactosidase assay (10 uM): −0.02233; Results in α7+/− β-galactosidase assay (20 uM): −0.1898; Results in α7+/− β-galactosidase assay (40 uM): −0.1237
9 | CC(C)Oc1ccc(C(=O)/C=C2\C(=O)Nc3ccccc32)cc1 [drawing 323] | 0.1381 | 0.1721 | −0.09555 | −0.3062 | −0.7604 | −0.9215 | 
10 | COc1ccc(/C=C(\NC(=O)c2ccc(C)cc2)C(=O)Nc2ccc(C(=O)O)cc2)cc1 [Compound 160] |  |  |  |  |  |  | EC50 (Mus musculus): 11.2 µM; Score (Table 12 compound data): 42; Fit Curve Class (curve class number): 2.1; Fit HillSlope (curve fit): 4.095; Fit Zero Activity [%] [1]: −2.4804%
11 | CCOC(=O)c1sc(=N)n(-c2ccc(OC)cc2)c1C [drawing 503] | 0.01467 | −0.0655 | −0.3446 | −0.2817 | −0.1985 | −0.1785 | 
12 | CCCC(=O)OCC(=O)c1[nH]c(C)c(C(C)=O)c1C [drawing 496] | −0.1192 | −0.0136 | −0.3312 | −0.02935 | −0.1657 | −0.01124 | 
13 | CC1CCN(S(=O)(=O)c2ccc(S(=O)(=O)N3CCCC3)cc2)CC1 [Compound 72] |  |  |  |  |  |  | AC50 (Mus musculus, Table 12, log of AC50, given with negative sign, unit of AC50 not given, read-out: Fit Log AC50 (converted)): 8.91 µM; Fit HillSlope (Table 12, curve fit): 2.3332; Fit Zero Activity [%] (Table 12, fitted activity at zero concentration): −2.3089%; Fit Curve Class (Table 12): 2.1; Score (Table 12 Compound data, concentration-response curve fit): 44
14 | N#Cc1ccc(Sc2nc3ccccc3[nH]2)cc1C#N [drawing 376] | 0.09647 | 0.1219 | 0.01154 | −0.06084 | −0.00606 | −0.1145 | 
